Results from patent publication US20220339135A1, “COMPOSITIONS AND METHODS FOR MODULATING AN INFLAMMATORY RESPONSE” (Enzychem Lifesciences Corporation, priority 2019, published 2022).

What was measured:
[1] = test system: ERK, JNK, p38MAPK in differentiated HaCaT cells; assay: IMQ-induced MAPK phosphorylation, western blot; assay type: cell-based; settings: PLAG 1, 10, 100 μg/ml, dose-dependent
Method: Differentiated HaCaT cells were divided into three groups: 1) control (non-treated) group, 2) IMQ treated group, and 3) IMQ/PLAG treated group. For IMQ treated group, cells were stimulated with IMQ (5 μg/ml) for 0, 20, 60 minutes. For IMQ/PLAG treated group, cells were pre-incubated with PLAG (1, 10, 100 μg/ml) for 1 hour and then stimulated with IMQ (5 μg/ml) for an hour. Then, cells were harvested. Cells were ruptured with 1×RIPA lysis buffer (Cell Signaling Technology) containing the protease inhibitor (Roche, Indianapolis, Ind., USA), and phosphatase inhibitor (Thermo Fisher Scientific Inc.) on ice. The cell lysates were then clarified by centrifugation and samples were analyzed on polyacrylamide gels. Each sample was separated by sodium dodecyl sulfate-polyacrylamide gel electrophoresis (SDS-PAGE) on polyacrylamide gels and the proteins were blotted onto a PVDF membrane (Bio-Rad). The membrane was blocked with 5% BSA (Gibco) in PBS containing 0.05% Tween-20 (Merck Millipore, Billerica, Mass., USA). The membrane was incubated with antibodies against phosphor-ERK (Thr202/Tyr204), ERK, phosphor-JNK (Thr183/Tyr185), SAPK/JNK, phosphor-p38MAPK (Thr180/thr182), and p38MAPK, overnight at 4° C. All antibodies were purchased from Cell signaling technology. Target proteins were detected with Immobilon Western Chemiluminescent HRP Substrate (Merck Millipore).

CXCL8 in THP-1 cells = assay: MSU crystal-induced CXCL8 in CD36 silenced THP-1 cells, ELISA; assay type: cell-based, human; settings: PLAG 10, 100 μg/ml
Method: The specific siRNA of CD36 (sc-29995) and control siRNA (sc-37007) were purchased from Santa Cruz Biotechnology. Cells were transfected with 50 nM of either the targeting or control siRNA using HiPerFect Transfection Reagent (Qiagen, Hilden, Germany) for 24 h. The knockdown efficiency of siRNAs was confirmed by Western blot analysis.
Transfected THP-1 cells were pre-incubated with PLAG (10, 100 μg/ml) for 1 hour and then stimulated with MSU crystal (400 μg/ml). After 24 hours, cells were centrifuged, and the supernatant was harvested. The concentrations of CXCL8 in the supernatant of THP-1 cells were measured using Human CXCL8 ELISA kit (BD bioscience, New Jersey, USA) according to the manufacturer's instructions. The cytokine levels were estimated by interpolation from a standard curve using an ELISA reader (Molecular Devices, Sunnyvale, USA) at 450 nm.

[2] = test system: intracellular ROS in BMDMs and THP-1 cells; assay: Gemcitabine-induced intracellular ROS measurement; assay type: cell-based; settings: gemcitabine 10 μg/mL 3 h, dose-dependent
Method: A total of 1×10^6 BMDMs and THP-1 were seeded, cultured, and subsequently exposed to various concentrations of PLAG with gemcitabine (10 μg/mL) for 3 h. The cells were then incubated with the ROS-sensitive probe CM-H2DCFDA (Invitrogen™) for 30 min at 37° C. in the dark. After incubation, the cells were washed 3 times with PBS and immediately analyzed using FACS verse (BD biosciences) with an excitation/emission peak at 495/527 nm. A total of 10,000 cells were counted in each determination, and results presented are means±S.E. of three independent experiments. Intracellular ROS production was also measured with a confocal laser scanning microscope (Zeiss LSM 800, Oberkochen, Germany). After incubating CM-H2DCFDA as above, the cells were fixed with 4% paraformaldehyde for 30 min and washed 3 times with PBS before photographing. The excitation and emission wavelengths were identical as described above, and a minimum of 5 random fields was captured for each culture.

[3] = test system: chemotherapy-induced neutropenia; assay: Chemotherapy-induced neutropenia in pancreatic cancer patients; assay type: in vivo, human
Excerpt: From January 2014 to September 2014, 16 patients with histologically or cytologically confirmed unresectable pancreatic cancer were enrolled in this study. […] Historical controls were also recruited from Asan Medical Center from March 2012 to December 2013. The eligibility criteria for the control group were the same as those for cases who intake PLAG during gemcitabine-based chemotherapy. The control group (n=32) was matched to the PLAG group (n=16) based on age, performance status, chemotherapy cycle, comorbidity, and disease extent. This study was approved by a hospital institutional review board.
All patients received gemcitabine 1,000 mg/m^2 on days 1, 8, and 15 of each 4-week schedule and daily erlotinib at 100 mg orally. In the PLAG group, PLAG 500 mg was orally administered twice daily from the start of the chemotherapy to the completion. Hematology and serum chemistry analyses were performed at screening baseline, then weekly until the end of the study. Febrile neutropenia (FN) was defined as an ANC of less than 1,000/mm^3 and an oral temperature of more than 38° C. on the same day or the following day after chemotherapy. If on the day of chemotherapy administration, a patient's ANC was reduced to 500-1,000/mm^3 or if the absolute platelet count was reduced to 50,000-100,000/mm^3, the gemcitabine dose was reduced by 75%. Gemcitabine was omitted for 1 week if the neutrophil count was lower than 500/mm^3, or the absolute platelet count was lower than 50,000/mm^3. […] Erlotinib dose was interrupted in patients within tolerable rash and was reduced or discontinued if symptoms persisted for 10-14 days. Erlotinib dose was reduced for grade 2 diarrhea persisting for 48-72 h and for grade 3 diarrhea following resolution to grade 1; erlotinib was permanently discontinued for grade 4 diarrhea. Treatment continued until disease progression unacceptable toxicity, withdrawal of patient's consent or physician's decision. Safety was evaluated throughout the entire study. Toxicity was graded based on the NCI Common Terminology Criteria for Adverse Events (CTCAE) version 3.0.
The primary endpoint was neutropenia, and the secondary endpoint was a safety profile. All analyses were performed using SPSS version 17.0 (SPSS Inc., Chicago, Ill., USA). Descriptive statistics were used to evaluate demographics, and safety data continuous variables were compared using the Mann-Whitney U test, paired t-test, and independent T-test. A P value of <0.05 was considered statistically significant.

`CCCCC/C=C\C/C=C\CCCCCCCC(=O)OC(COC(C)=O)COC(=O)CCCCCCCCCCCCCCC` (racemic) [PLAG, 1-palmitoyl-2-linoleoyl-3-acetylglycerol] was tested, and the “IMQ-induced phosphorylation of ERK, JNK, p38 MAPK” value [1] was “attenuated”, the “decrease of CXCL8 induced by MSU crystal” value (CXCL8 in THP-1 cells) was “still shown” and the “gemcitabine-induced intracellular ROS production” value [2] was “effectively reduced”. For the same molecule, the “incidence of neutropenia (ANC<1,500/mm^3, grade 2-4)” value ([3]; PLAG 500 mg orally twice daily with gemcitabine + erlotinib, n=16) was 37.5%, the “ANC nadir (relative to baseline)” value ([3]; PLAG group) was “about 0.75” and the “febrile neutropenia (FN)” value ([3]; PLAG group) was “did not occur”. For the same molecule, the “severe neutropenia (ANC<500/mm^3, grade 4)” value ([3]; PLAG group vs control group) was “developed only in the control group”, the “adverse events related to PLAG during chemotherapy” value ([3]; including nausea/vomiting, bone pain, fatigue, liver dysfunction) was “no adverse events related to PLAG” and the “decrease of ANCs from the baseline level” value ([3]; vs control group, P<0.05) was “decreased significantly less”.
